Measured values: PubChem BioAssay (NCI)
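96-well plates; 48 h exposure; 5 concentrations. Endpoints by linear interpolation between flanking doses. Not reached: highest tested concentration assigned. GI50 marks 50% less growth. The concentration for full growth arrest is given as TGI.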

Experiments:
Assay in all cases: NCI tumour cell line growth inhibition, 48 h
COLO 205 colon = system: COLO 205 colon
NCI-H460 lung = system: NCI-H460 lung
T-47D breast = system: T-47D breast
OVCAR-5 ovarian = system: OVCAR-5 ovarian
DU-145 prostate = system: DU-145 prostate
PC-3 prostate = system: PC-3 prostate
CCRF-CEM leukemia = system: CCRF-CEM leukemia
TK-10 renal = system: TK-10 renal
SF-539 CNS = system: SF-539 CNS
UO-31 renal = system: UO-31 renal
MDA-MB-435 = system: MDA-MB-435
A498 renal = system: A498 renal
NCI/ADR-RES ovarian = system: NCI/ADR-RES ovarian
HCC-2998 colon = system: HCC-2998 colon
MOLT-4 leukemia = system: MOLT-4 leukemia
A549 NSCLC = system: A549 NSCLC
UACC-257 melanoma = system: UACC-257 melanoma
EKVX NSCLC = system: EKVX NSCLC
SF-268 CNS = system: SF-268 CNS
SK-OV-3 ovarian = system: SK-OV-3 ovarian
HCT-116 colon = system: HCT-116 colon
M14 melanoma = system: M14 melanoma
SNB-19 CNS = system: SNB-19 CNS
RPMI-8226 leukemia = system: RPMI-8226 leukemia
HOP-92 NSCLC = system: HOP-92 NSCLC
SW-620 colon = system: SW-620 colon
RXF 393 renal = system: RXF 393 renal

For O=S(=O)(NCCCNc1nccc(-c2[nH]c(-c3ccccc3)nc2-c2ccc(F)c(O)c2)n1)c1ccc(C(F)(F)F)cc1, which GI50 (COLO 205 colon) is on record?
Its GI50 is 3.06 µM.

And the TGI (COLO 205 colon)?
Its TGI is 9.77 µM.

And the GI50 (NCI-H460 lung)?
The GI50 was 2.26 µM.

And the TGI (NCI-H460 lung)?
The TGI was 5.07 µM.

And the GI50 (T-47D breast)?
The GI50 was 2.56 µM.

And the TGI (T-47D breast)?
The TGI was 22 µM.

And the GI50 (OVCAR-5 ovarian)?
The GI50 was 3.12 µM.

What about the TGI (OVCAR-5 ovarian) of the same molecule?
The TGI was 9.26 µM.

What about the GI50 (DU-145 prostate) of the same molecule?
Its GI50 is 3.06 µM.

And the TGI (DU-145 prostate)?
The TGI was 11.5 µM.

And the GI50 (PC-3 prostate)?
Its GI50 is 3.08 µM.

And the TGI (PC-3 prostate)?
The TGI was > 100 µM.

And the GI50 (CCRF-CEM leukemia)?
The GI50 was 3.46 µM.

And the TGI (CCRF-CEM leukemia)?
The TGI was > 100 µM.

What about the GI50 (TK-10 renal) of the same molecule?
The GI50 was 3.79 µM.

What about the TGI (TK-10 renal) of the same molecule?
Its TGI is 28.1 µM.

And the GI50 (SF-539 CNS)?
Its GI50 is 2 µM.

What about the TGI (SF-539 CNS) of the same molecule?
The TGI was 3.85 µM.

What about the GI50 (UO-31 renal) of the same molecule?
The GI50 was 2.69 µM.

What about the TGI (UO-31 renal) of the same molecule?
The TGI was 7.17 µM.

And the GI50 (MDA-MB-435)?
Its GI50 is 1.59 µM.

And the TGI (MDA-MB-435)?
Its TGI is 3.7 µM.

What about the GI50 (A498 renal) of the same molecule?
Its GI50 is 2.68 µM.

What about the TGI (A498 renal) of the same molecule?
Its TGI is 7.38 µM.

And the GI50 (NCI/ADR-RES ovarian)?
The GI50 was 3.88 µM.

And the TGI (NCI/ADR-RES ovarian)?
The TGI was 18.9 µM.

What about the GI50 (HCC-2998 colon) of the same molecule?
The GI50 was 2.8 µM.

What about the TGI (HCC-2998 colon) of the same molecule?
The TGI was 6.53 µM.

What about the GI50 (MOLT-4 leukemia) of the same molecule?
Its GI50 is 3.02 µM.

What about the TGI (MOLT-4 leukemia) of the same molecule?
The TGI was > 100 µM.

And the GI50 (A549 NSCLC)?
Its GI50 is 3.04 µM.

What about the TGI (A549 NSCLC) of the same molecule?
Its TGI is 12.4 µM.

And the GI50 (UACC-257 melanoma)?
The GI50 was 2.48 µM.

And the TGI (UACC-257 melanoma)?
The TGI was 7.33 µM.

And the GI50 (EKVX NSCLC)?
Its GI50 is 3.61 µM.

What about the TGI (EKVX NSCLC) of the same molecule?
The TGI was 16 µM.

And the GI50 (SF-268 CNS)?
Its GI50 is 2.55 µM.

And the TGI (SF-268 CNS)?
The TGI was 7.25 µM.

And the GI50 (SK-OV-3 ovarian)?
Its GI50 is 3.46 µM.

What about the TGI (SK-OV-3 ovarian) of the same molecule?
Its TGI is 18.8 µM.

And the GI50 (HCT-116 colon)?
Its GI50 is 2.18 µM.

And the TGI (HCT-116 colon)?
The TGI was 5.11 µM.

What about the GI50 (M14 melanoma) of the same molecule?
The GI50 was 1.46 µM.

And the TGI (M14 melanoma)?
The TGI was 4.09 µM.

And the GI50 (SNB-19 CNS)?
Its GI50 is 3.51 µM.

What about the TGI (SNB-19 CNS) of the same molecule?
The TGI was 11.1 µM.

And the GI50 (RPMI-8226 leukemia)?
The GI50 was 2.49 µM.

What about the TGI (RPMI-8226 leukemia) of the same molecule?
Its TGI is 7.05 µM.

What about the GI50 (HOP-92 NSCLC) of the same molecule?
The GI50 was 2.15 µM.

And the TGI (HOP-92 NSCLC)?
The TGI was 9.16 µM.

What about the GI50 (SW-620 colon) of the same molecule?
The GI50 was 4.09 µM.

And the TGI (SW-620 colon)?
The TGI was 15 µM.

What about the GI50 (RXF 393 renal) of the same molecule?
Its GI50 is 2.3 µM.
